# Measurements from paper PMC4728427, “Mechanism of allosteric activation of TMEM16A/ANO1 channels by a commonly used chloride channel blocker” (British Journal of Pharmacology, 2016).
# Biological target: T1, Mouse TMEM16A (Mus musculus, UniProt Q8BHY3)
# T1 construct: expressed in transfected cells; host or cells: HEK-293T
# T1 sequence (Q8BHY3 1-960): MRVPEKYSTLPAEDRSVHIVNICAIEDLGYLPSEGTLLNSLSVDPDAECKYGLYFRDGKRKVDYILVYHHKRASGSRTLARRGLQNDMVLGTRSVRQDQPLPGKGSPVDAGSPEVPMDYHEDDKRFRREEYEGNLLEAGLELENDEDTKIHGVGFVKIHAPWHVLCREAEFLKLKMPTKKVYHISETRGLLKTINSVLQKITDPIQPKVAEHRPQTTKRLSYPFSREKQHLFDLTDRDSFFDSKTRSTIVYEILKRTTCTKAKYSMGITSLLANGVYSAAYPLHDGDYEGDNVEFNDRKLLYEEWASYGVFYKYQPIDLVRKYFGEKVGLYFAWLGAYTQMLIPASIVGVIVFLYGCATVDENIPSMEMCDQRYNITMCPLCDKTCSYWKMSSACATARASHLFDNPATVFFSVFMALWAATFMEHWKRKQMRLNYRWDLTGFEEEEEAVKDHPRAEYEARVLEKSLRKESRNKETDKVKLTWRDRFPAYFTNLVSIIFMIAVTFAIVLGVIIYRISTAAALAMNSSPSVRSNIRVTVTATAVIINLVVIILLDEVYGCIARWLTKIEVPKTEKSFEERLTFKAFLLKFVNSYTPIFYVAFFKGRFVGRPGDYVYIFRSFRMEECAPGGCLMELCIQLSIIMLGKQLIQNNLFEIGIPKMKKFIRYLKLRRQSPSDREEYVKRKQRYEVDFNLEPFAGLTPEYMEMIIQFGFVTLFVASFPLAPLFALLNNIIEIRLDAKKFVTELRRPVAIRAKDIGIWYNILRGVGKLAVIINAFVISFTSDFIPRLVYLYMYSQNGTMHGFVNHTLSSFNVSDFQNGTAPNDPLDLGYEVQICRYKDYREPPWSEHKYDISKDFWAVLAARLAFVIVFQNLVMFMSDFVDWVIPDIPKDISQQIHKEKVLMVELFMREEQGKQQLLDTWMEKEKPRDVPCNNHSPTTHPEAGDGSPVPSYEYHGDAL
# Assay: Whole-cell TMEM16A current versus Vm relationship with extracellular A9C, 300 nM [Ca2+]i
# Format: cell-based
# Method: Mouse TMEM16A (GenBank NM_178642) subcloned into pcDNA3.1 vector was used in this study (Alexander et al., 2013). HEK‐293T cells were cultured as previously described (Smith et al., 2013) and transfected with 0.5–1 μg of TMEM16A and 0.1 μg of CD8 constructs using Fugene HD (Promega, Madison, WI, USA) according to the manufacturer's instructions. Cells were used ~12–36 h after transfection. Transfected cells were visualized using the anti‐CD8 antibody‐coated beads method (Jurman et al., 1994).
# TMEM16A currents were measured with the whole‐cell or inside‐out patch configuration of the patch‐clamp technique as detailed in the Supporting Information. The exchange of solutions was achieved by using a local perfusion system consisting of eight tubes of 1.2 mm diameter in which the tip of the patch pipette was inserted. In some experiments, ultra‐rapid (<50 ms) changes in A9C concentration ([A9C]) (‘concentration jumps’) were achieved using a computer‐controlled perfusion system (Warner Instruments, Hamden, CT, USA).
# The intracellular solution contained (mM) 130 CsCl, 10 EGTA, 1 MgCl2, 10 HEPES and 8 CaCl2 to obtain ~300 nM of [Ca^2+]i; pH was adjusted to 7.3 with NaOH. The intracellular solutions containing ~600 nM, ~1000 nM and ~12.5 μM [Ca^2+]i were obtained by replacing EGTA with equimolar H‐EDTA and by adding 2.1, 3.1 and 7.8 mM CaCl2 respectively. The extracellular solution contained (mM) 150 NaCl, 1 CaCl2, 1 MgCl2, 10 glucose, 10 D‐mannitol and 10 HEPES; pH was adjusted to 7.4 with NaOH. […] A9C was dissolved in DMSO (stock concentration, 300 mM); thus, the final concentration of DMSO was ≤1%. Aliquots of the stock solution were kept at −20° and used within 5 days.
# Current versus V m relationships were constructed by measuring currents in response to 1 s V m steps (test pulses) from −100 to +100 mV in 40 mV increments (unless stated otherwise) after a 1 s V m step to +70 mV (pre‐pulse). Pulses were elicited every 2 s from a holding V m of 0 mV. Steady‐state currents were measured at the end of the test pulses. As detailed in the Results, in the presence of 300 nM [Ca^2+]i and extracellular A9C, the test‐pulse currents reached a peak within the first ~50 ms of the test pulse. These peak currents were also measured and plotted against the V m of the test pulse. Current density was obtained by dividing the current amplitude for the cell capacitance.
# For determination of the current reversal potential (E rev), instantaneous currents were estimated from extrapolation of single exponential fits of the test‐pulse currents to the beginning of each test pulse. These instantaneous current values were plotted as a function of the V m, and the relative chord conductance was measured between an interval of ±20 m V around the E rev (Tammaro et al., 2005; Adomaviciene et al., 2013).
# The project began by examining if this also applies to cloned TMEM16A channels. In the presence of increasing extracellular [A9C] ([A9C]ext), a pre‐pulse of +70 mV was used to open TMEM16A channels followed by a series of test pulses (Figure 1).
# Ta C.M., Adomaviciene A., Rorsman N., Garnett H. and Tammaro P.
# SUPPLEMENTARY INFORMATION
# TMEM16A currents were measured with the whole-cell or inside-out configuration of
# the patch-clamp technique using an Axon 200B amplifier (Molecular Devices, USA)
# controlled with GE-pulse software (http://users.ge.ibf.cnr.it/pusch/programs-mik.htm).
# Currents were filtered at 2-5 kHz and sampled at 10 kHz, unless stated otherwise. […]
smiles,measurement,setting,value
"O=C(O)c1c2ccccc2cc2ccccc12 [A9C, Anthracene‐9‐carboxylic acid]",peak current at −100 mV relative to control,3000 μM A9C extracellular,~ 13 folds
same,steady-state current decrease,"3000 μM [A9C]ext, Vm > 60 mV, whole-cell",up to approximately threefold
same,E rev of TMEM16A currents,"3000 μM [A9C]ext, control 4.5 ± 1.4 mV",8.3 ± 1.4 mV
same,steady-state current increase,"[A9C]ext ≤ 100 μM, Vm > 60 mV, whole-cell",~ 1.3 folds
same,steady-state current change at Vm ≤ 60 mV,any [A9C]ext tested (30-3000 μM),did not change substantially
